Reference: US10189880B2, “T cell receptors directed against Bob1 and uses thereof” (LEIDEN UNIVERSITY MEDICAL CENTER, priority 2014, dated 2019)
Values joined by “and” are separate entries in the source; they are usually repeats but may differ in a detail not shown here. Equal values may be shown once. “Also recorded” adds a separate entry of the source. Read-outs that look alike come from different tables or passages of the source.

Experiments:
[1] = cited from earlier work
[2] = system: CD3+ΔCD19+ cells; test: Phase 1 clinical trial of iCasp9 T cells after haploidentical stem cell transplantation; assay type: in vivo, human
From the text: This example presents results of a phase 1 clinical trial using an alternative suicide gene strategy. Briefly, donor peripheral blood mononuclear cells were co-cultured with recipient irradiated EBV-transformed lymphoblastoid cells (40:1) for 72 hrs, allodepleted with a CD25 immunotoxin and then transduced with a retroviral supernatant carrying the iCasp9 suicide gene and a selection marker (ΔCD19); ΔCD19 allowed enrichment to >90% purity via immunomagnetic selection.
Patients developing Grade I GvHD were treated with 0.4 mg/kg AP1903 as a 2-hour infusion. Protocols for administration of AP1903 to patients developing Grade I GvHD were established as follows. Patients developing GvHD after infusion of allodepleted T cells are biopsied to confirm the diagnosis and receive 0.4 mg/kg of AP1903 as a 2 h infusion. […] Patients developing grades 2-4 GvHD were administered standard systemic immunosuppressive therapy per institutional guidelines, in addition to the AP1903 dimerizer drug.
Three patients received iCasp9+ T cells after haplo-CD34+ stem cell transplantation (SCT), at dose levels between about 1×10^6 to about 3×10^6 cells/kg.

[3] = AP1903 in vitro effective signaling of cells; assay type: cell-based
Description: The fixed dose of AP1903 for injection used, for example, may be 0.4 mg/kg intravenously infused over 2 hours. The amount of AP1903 needed in vitro for effective signaling of cells is about 10-100 nM (MW: 1412 Da). This equates to 14-140 μg/L or ˜0.014-0.14 mg/kg ([…]). The dosage may vary according to the application, and may, in certain examples, be more in the range of 0.1-10 nM, or in the range of 50-150 nM, 10-200 nM, 75-125 nM, 100-500 nM, 100-600 nM, 100-700 nM, 100-800 nM, or 100-900 nM. Doses up to 1 mg/kg were well-tolerated in the Phase I study of AP1903 described above.

Structure (SMILES): CC[C@H](C(=O)N1CCCC[C@H]1C(=O)O[C@H](CCc1ccc(OC)c(OC)c1)c1cccc(OCC(=O)NCCNC(=O)COc2cccc([C@@H](CCc3ccc(OC)c(OC)c3)OC(=O)[C@@H]3CCCCN3C(=O)[C@@H](CC)c3cc(OC)c(OC)c(OC)c3)c2)c1)c1cc(OC)c(OC)c(OC)c1 (relative stereo) [AP1903, 2-Piperidinecarboxylic acid, 1-[(2S)-1-oxo-2-(3,4,5-trimethoxyphenyl)butyl]-, 1,2-ethanediylbis[imino(2-oxo-2,1-ethanediyl)oxy-3,1-phenylene[(1R)-3-(3,4-dimethoxyphenyl)propylidene]]ester, [2S-[1(R*),2R*[S[S*[1(R*),2R*]]]]]-(9Cl)]
- duration of the adverse event ([1]; 1.0 mg/kg): 32 min
- onset of the adverse event after start of infusion ([1]; 1.0 mg/kg): 3 min
- relation of plasma levels to dose ([1]; 0.01-1.0 mg/kg): directly proportional to dose
- adverse event considered possibly related to AP1903 ([1]; 1 volunteer at the 1.0 mg/kg dosage): vasodilatation
- plasma level as % of maximal concentration ([1]; 2 hours post-dose): ~7%
- plasma level as % of maximal concentration ([1]; 10 hours post-dose): ~1%
- serious adverse events ([1]; Phase 1 study in volunteers): No serious adverse events
- safety and tolerability ([1]; all dose levels, 0.01 to 1.0 mg/kg): well-tolerated; also recorded: No significant adverse effects
- incidence of adverse events ([1]; following each treatment): very low
- severity of adverse events ([1]; human, in vivo): mild
- mean Cmax / plasma concentrations ([1]; single IV infusion over 2 hours, 0.01-1.0 mg/kg dose range): 10 to 1275 ng/mL and 10 ng/mL
- time to resolution of skin and liver aGvHD ([2]; after AP1903 administration): ≤ 24 h
- ablation of CD3+ΔCD19+ cells ([2]; within 30 minutes of infusion, patients with grade I/II aGvHD, 0.4 mg/kg): > 90%
- further reduction of CD3+ΔCD19+ cells ([2]; within 24 hours): further log reduction
- amount needed in vitro for effective signaling of cells [3]: 10 to 100 nM
- amount needed for effective signaling, converted ([3]; MW: 1412 Da): 14 to 140 µg/L
